In patent US20260217727A1, “COMPOUNDS DERIVED FROM DIHYDROPIRIDINES, PHARMACEUTICAL COMPOSITIONS COMPRISING SAID COMPOUNDS AND METHOD OF TREATMENT OF MUSCLE DISORDERS COMPRISING ADMINISTRATION OF SAID COMPOSITIONS” (UNIVERSIDAD DE CHILE, priority 2023, published 2026):
“Also recorded” adds a separate entry of the source. Values belong to the compound of their own block, whether it stands above or below them.

Key:
[1] = molecular target: T1, Cav1.1 channels (dihydropyridine receptors) (Mus musculus, UniProt Q02789); conditions: earlier results, stated in words; cited from earlier work
T1 construct: endogenous in cells; host or cells: single skeletal muscle fibers isolated from C57 mouse flexor digitorum brevis (FDB) muscle

fdb muscle fibers [2] = conditions: earlier results of the inventors; cited from earlier work
[3] = tested on: muscle fibers of normal mice; assay: qPCR of proinflammatory genes in muscle fibers exposed to extracellular ATP; assay type: cell-based, mouse; conditions: 300 μM extracellular ATP for 2 h
Protocol: Total RNA from the isolated muscle fiber culture was extracted using TRIzol (Invitrogen) according to the manufacturer's protocol. The cDNA was obtained by reverse transcription from 1 μg of total RNA, using the enzyme SuperScript II (Invitrogen) according to the manufacturer's protocol. Real-time qPCR assays were performed using a thermocycler (Stratagene Mx300P, Agilent) according to the following protocol. The reaction mix will be given by 1 μL 10×dNTPs, 0.5 μL sense primer (10 pmol/μL), 0.5 μL antisense primer (10 pmol/μL), 4 μL EVA Green (Invitrogen) and 1 μL cDNA. The final volume of the mix was brought to 20 μL by adding nuclease-free water. All primers have an optimal amplification efficiency (between 90-110%). In any case, the analysis of the data was carried out considering a correction of the amplification cycle of each gene according to the amplification efficiency of the primers. The thermocycling conditions were the following: 1 cycle of 12 min at 95° C., followed by 40 cycles of 15 at 95° C. […] The Ct value was determined by the MXPro software when the fluorescence level is 25% higher than the basal fluorescence. […]
Increases in proinflammatory markers have been reported in the muscles of older adults, as part of the process of losing muscle mass. Therefore, the effect of chronic exposure to high levels of extracellular ATP on mRNA levels of proinflammatory genes was evaluated. […]

[4] = molecular target: T1, Cav1.1 channels (dihydropyridine receptors); assay: Whole cell voltage-clamp measurement of L-type Ca2+ currents in isolated fdb muscle fibers; assay type: cell-based; conditions: L-type calcium peak current, mouse skeletal muscle fibers, control = maximum current without drug, read-out: % inhibition of Ca^2+ current
fdb muscle fibers [5] = assay: ATP release from fdb muscle fibers after 20 Hz electrical stimulation (luciferin/luciferase); assay type: cell-based, mouse; conditions: pre-incubation 10 μM for 30 min
Protocol: Isolation of skeletal muscle fibers was performed from C57BL/J6 mice between 8 and 10 weeks of age. Isolated fibers were obtained from the flexor digitorum brevis (FoB) and Gastrocnemius muscle by enzymatic digestion for 90 min with 400 U/mL type II collagenase (Worthington Biochemicals Corp., Lakewood, NJ, USA) and mechanical dissociation with Pasteur pipettes, as previously described (Casas et.al, 2010). The isolated fibers were seeded in Petri dishes coated with a layer of Matrigel in Dulbecco's modified Eagle's culture medium (DMEM), supplemented with 10% horse serum, 50 U/mL penicillin and […] streptomycin. Cell cultures were used approximately 20 h after the fiber seeding process. All protocols were previously approved by the Bioethics Committee of the Faculty of Medicine of the University of Chile. […]
Extracellular ATP concentrations were determined using the CellTiter-Glo® Luminescent Cell Viability Assay Kit (Promega). […] After incubating for 10 min in the dark at room temperature, the samples were quantified in an FB12 (Berthold) luminometer. […] RNA normalization was preferred over total protein normalization since adult fiber cultures were seeded on a matrigel sheet, which has a large amount of protein and could alter the quantification process. […]

aged mice [6] = assay: Incremental strength test (weightlifting) in aged mice; assay type: in vivo, mouse
Protocol: The muscle function of aged mice (between 19 and 21 months of age) was assessed with an incremental strength test (weightlifting) and with an incremental treadmill running test. The measurement was made after 12 days of treatment with MP-2 (1 mg/Kg/day) administered via intraperitoneal injection. As a control, vehicle-injected mice were used in the same manner as drug-injected mice. Recovery of muscle function can be observed after treatment. Data were analyzed as the change in test performance at the end of treatment relative to performance at the start of treatment for each mouse. It is observed that the treatment improves the strength parameters more than 4 times with respect to the control. […] The mean±SEM is plotted. N=5 for each group, *: p<0.05
Two functional tests were performed in control (saline-injected) and MP-2-treated (daily intraperitoneal injections of 1 mg/Kg MP-2 for 12 days) mice.

aged mice [7] = assay: Incremental treadmill running test (endurance) in aged mice; assay type: in vivo, mouse
Protocol: The standardization of this test that evaluates resistance and strength was carried out in the treadmill equipment for rodents. The test consists of 5 sessions where the animals were acclimatized for 5 minutes at the equipment's minimum speed of 0.3 Km/h and the number of shots of compressed air that keep the animal trotting is counted. Once the acclimatization process was finished, the animals were evaluated in an incremental test consisting of 2-minute ramps at the minimum speed and then gradually increasing 0.1 Km/h after 2 minutes until the animal could no longer run. This maximum effort test is only performed once per session and is considered finished when the animal reaches the bottom of the ramp and accumulates 10 shots of compressed air in a period of 10 seconds.
The muscle function of aged mice (between 19 and 21 months of age) was assessed with an incremental strength test (weightlifting) and with an incremental treadmill running test. The measurement was made after 12 days of treatment with MP-2 (1 mg/Kg/day) administered via intraperitoneal injection. As a control, vehicle-injected mice were used in the same manner as drug-injected mice. Recovery of muscle function can be observed after treatment. Data were analyzed as the change in test performance at the end of treatment relative to performance at the start of treatment for each mouse. […]

[8] = aged mice 19-21 months, 1 mg/Kg/day i.p. for 12 days, change end vs start of treatment

T1 sequence (Q02789 whole entry): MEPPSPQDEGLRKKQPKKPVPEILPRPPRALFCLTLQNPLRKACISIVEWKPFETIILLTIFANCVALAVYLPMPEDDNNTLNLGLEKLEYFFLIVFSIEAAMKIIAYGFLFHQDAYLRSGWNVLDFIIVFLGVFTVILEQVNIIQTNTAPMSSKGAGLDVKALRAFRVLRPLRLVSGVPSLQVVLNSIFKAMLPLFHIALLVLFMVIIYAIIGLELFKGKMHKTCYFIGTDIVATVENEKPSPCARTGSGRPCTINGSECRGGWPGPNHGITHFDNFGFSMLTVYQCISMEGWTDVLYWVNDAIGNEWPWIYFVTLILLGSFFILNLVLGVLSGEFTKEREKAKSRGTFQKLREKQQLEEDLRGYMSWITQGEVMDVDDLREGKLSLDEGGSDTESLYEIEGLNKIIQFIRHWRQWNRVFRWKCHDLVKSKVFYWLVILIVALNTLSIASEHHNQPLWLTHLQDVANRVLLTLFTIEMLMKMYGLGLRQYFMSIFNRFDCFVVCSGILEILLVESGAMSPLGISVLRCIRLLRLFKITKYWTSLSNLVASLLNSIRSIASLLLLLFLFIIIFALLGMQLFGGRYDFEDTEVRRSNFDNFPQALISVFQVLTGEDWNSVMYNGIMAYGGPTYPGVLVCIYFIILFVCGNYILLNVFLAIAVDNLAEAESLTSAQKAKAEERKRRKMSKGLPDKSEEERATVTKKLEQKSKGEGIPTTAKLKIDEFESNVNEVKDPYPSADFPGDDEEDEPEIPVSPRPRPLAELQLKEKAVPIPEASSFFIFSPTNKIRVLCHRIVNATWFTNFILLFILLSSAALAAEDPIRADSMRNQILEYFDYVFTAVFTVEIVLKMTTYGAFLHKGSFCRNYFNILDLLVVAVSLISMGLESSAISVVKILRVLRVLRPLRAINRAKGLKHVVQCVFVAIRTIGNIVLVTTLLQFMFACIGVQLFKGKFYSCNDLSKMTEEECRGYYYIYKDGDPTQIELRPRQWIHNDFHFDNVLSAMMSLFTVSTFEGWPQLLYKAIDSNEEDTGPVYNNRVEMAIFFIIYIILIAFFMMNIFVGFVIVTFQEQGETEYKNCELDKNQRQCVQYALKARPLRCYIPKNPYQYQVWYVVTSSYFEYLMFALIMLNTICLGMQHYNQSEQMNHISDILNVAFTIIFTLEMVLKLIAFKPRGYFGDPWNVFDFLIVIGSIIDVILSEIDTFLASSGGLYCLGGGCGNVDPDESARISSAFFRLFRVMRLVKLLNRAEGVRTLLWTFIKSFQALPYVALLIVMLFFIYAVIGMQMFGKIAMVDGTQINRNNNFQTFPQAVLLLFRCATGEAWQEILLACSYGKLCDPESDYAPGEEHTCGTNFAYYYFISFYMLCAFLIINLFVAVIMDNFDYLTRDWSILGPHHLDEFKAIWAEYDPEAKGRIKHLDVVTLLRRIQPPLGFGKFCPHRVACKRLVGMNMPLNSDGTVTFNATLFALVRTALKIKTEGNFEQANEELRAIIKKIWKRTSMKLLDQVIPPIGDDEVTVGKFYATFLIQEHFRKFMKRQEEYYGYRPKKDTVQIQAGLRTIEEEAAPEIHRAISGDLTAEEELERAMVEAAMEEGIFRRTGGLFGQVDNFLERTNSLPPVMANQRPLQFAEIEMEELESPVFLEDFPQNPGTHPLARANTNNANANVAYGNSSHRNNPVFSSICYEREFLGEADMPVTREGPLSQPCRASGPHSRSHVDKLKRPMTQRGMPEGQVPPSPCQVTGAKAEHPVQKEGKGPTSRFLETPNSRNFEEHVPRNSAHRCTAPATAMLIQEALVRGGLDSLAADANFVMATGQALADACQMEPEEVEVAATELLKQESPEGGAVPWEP
T1 sequence (Q8R3Z5 whole entry partner): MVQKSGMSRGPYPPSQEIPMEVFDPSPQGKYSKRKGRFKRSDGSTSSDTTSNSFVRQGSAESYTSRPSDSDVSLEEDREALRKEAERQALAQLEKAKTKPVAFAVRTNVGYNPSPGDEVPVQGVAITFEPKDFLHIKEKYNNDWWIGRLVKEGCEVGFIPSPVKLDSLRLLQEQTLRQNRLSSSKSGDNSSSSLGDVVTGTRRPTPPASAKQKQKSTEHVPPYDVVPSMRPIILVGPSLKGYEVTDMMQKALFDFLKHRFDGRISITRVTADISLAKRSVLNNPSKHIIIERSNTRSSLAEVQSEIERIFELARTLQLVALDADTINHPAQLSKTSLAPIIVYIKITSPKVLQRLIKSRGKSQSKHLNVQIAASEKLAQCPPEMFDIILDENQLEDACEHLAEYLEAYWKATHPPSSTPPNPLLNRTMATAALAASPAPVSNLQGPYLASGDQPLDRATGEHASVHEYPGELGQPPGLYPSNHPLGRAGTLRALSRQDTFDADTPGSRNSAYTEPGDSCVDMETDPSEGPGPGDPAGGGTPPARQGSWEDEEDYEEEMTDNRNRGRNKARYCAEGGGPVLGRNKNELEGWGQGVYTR
T1 sequence (O08532 25-1103 partner): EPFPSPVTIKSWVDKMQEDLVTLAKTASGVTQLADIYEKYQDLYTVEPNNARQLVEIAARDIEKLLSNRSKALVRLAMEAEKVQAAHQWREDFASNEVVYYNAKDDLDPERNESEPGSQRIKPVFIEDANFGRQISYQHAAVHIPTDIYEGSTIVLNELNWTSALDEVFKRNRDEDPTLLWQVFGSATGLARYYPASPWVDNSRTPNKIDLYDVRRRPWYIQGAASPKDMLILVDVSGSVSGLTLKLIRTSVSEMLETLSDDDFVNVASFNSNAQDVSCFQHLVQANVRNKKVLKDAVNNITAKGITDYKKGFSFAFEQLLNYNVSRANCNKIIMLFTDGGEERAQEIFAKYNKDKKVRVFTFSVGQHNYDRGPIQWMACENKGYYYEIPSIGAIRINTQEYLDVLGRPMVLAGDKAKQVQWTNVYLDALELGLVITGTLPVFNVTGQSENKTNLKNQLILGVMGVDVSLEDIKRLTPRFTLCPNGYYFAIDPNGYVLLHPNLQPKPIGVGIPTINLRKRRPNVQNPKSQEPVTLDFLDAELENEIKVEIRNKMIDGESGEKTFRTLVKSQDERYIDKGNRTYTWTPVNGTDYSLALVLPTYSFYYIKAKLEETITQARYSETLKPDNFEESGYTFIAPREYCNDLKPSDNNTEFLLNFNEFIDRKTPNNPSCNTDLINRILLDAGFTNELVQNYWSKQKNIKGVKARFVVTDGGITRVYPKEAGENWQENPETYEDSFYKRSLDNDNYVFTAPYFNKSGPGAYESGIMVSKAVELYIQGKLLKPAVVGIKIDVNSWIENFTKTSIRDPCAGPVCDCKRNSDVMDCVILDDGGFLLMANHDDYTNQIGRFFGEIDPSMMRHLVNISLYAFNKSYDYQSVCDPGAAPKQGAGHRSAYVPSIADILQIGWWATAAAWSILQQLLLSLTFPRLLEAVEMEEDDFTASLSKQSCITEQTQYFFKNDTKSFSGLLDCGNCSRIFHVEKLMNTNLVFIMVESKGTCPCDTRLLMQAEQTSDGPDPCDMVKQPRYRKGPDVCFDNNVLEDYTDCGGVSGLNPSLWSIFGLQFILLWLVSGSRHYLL
T1 sequence (O70578 whole entry partner): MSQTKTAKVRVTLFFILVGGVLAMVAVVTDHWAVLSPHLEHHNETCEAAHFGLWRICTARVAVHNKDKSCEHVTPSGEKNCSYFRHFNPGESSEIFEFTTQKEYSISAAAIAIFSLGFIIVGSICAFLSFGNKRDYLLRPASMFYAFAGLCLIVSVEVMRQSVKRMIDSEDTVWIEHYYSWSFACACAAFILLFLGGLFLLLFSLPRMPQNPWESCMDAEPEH

Compound: COC(=O)C1=C(C)NC(C)=C([N+](=O)[O-])[C@H]1c1ccccc1C(F)(F)F [(S)-(−)-BayK-8644]
- effect on Ca^2+ current through the DHPR channel (earlier work) [1]: increases Ca^2+ current
- ATP outflow after electrical stimulation of the muscle fiber (earlier work) (fdb muscle fibers [2]): also inhibits ATP release

Compound: Nc1ncnc2c1ncn2[C@@H]1O[C@H](COP(=O)(O)OP(=O)(O)OP(=O)(O)O)[C@@H](O)[C@H]1O [ATP]
- mRNA levels of proinflammatory genes (TNF-α and IL-6) [3]: increase

- inhibition at 10 µM [4]: 50 ± 8%
- inhibition of ATP outflow induced by 20 Hz electrical stimulation (fdb muscle fibers [5]; listed as MP2): inhibits in a similar way as nifedipine
Compound: COC(=O)C1=C(C)NC2=C(C(=O)OC2)C1c1ccccc1[N+](=O)[O-] (stereo not drawn) [MP-2, methyl 2-methyl-4-(2-nitrophenyl)-5-oxo-1,4,5,7-tetrahydrofuro [3,4-b]pyridine-3-carboxylate]
- inhibition of ATP outflow induced by 20 Hz electrical stimulation (fdb muscle fibers [5]): inhibits the outflow of ATP; also recorded: indistinguishable from that of nifedipine
- improvement of strength parameters with respect to the control (aged mice [6]; [8]): more than 4 times
- muscle strength in aged mice (aged mice [6]; aged mice (age>18 months)): substantially improves their muscle strength
- improvement in weight test (measure of strength) (aged mice [6]; daily i.p. 1 mg/Kg for 12 days): 64.4%
- increase in Endurance test (incremental treadmill test) over the control (aged mice [7]; [8]): ~5 times
- improvement in treadmill test (measure of resistance) (aged mice [7]; daily i.p. 1 mg/Kg for 12 days): 25%

- inhibition at 10 µM [4]: 32.6 ± 8%
Compound: COC(=O)C1=C(C)NC(C)=C(C(=O)OCCN(C)Cc2ccccc2)C1c1cccc([N+](=O)[O-])c1 (stereo not drawn) [Nicardipine]

- inhibition at 10 µM [4]: 48 ± 10%
Compound: COCCOC(=O)C1=C(C)NC(C)=C(C(=O)OC(C)C)C1c1cccc([N+](=O)[O-])c1 (stereo not drawn) [Nimodipine]

- inhibition at 10 µM [4]: 14.3 ± 7%
Compound: COC(=O)C1=C(C)NC(C)=C(C(=O)OCC(C)C)C1c1ccccc1[N+](=O)[O-] (stereo not drawn) [Nisoldipine]

- inhibition at 10 µM [4]: 47.6 ± 2%
Compound: CCOC(=O)C1=C(C)NC(C)=C(C(=O)OC)C1c1cccc([N+](=O)[O-])c1 (stereo not drawn) [Nitrendipine]
